For 4 compounds, EC50, AC50 and IC50 results are on record in ChEMBL document CHEMBL1201862, “PubChem BioAssay data set” (2004).

Broadly, the EC50 is the concentration giving half of the maximal effect. Usually AC50 stands for the concentration giving half of the maximal activity seen. For orientation: IC50 means the concentration that gives 50% inhibition.

The target in experiment [1] is T1, High affinity choline transporter 1 (Homo sapiens, UniProt Q9GZV3).
T1 sequence (Q9GZV3 whole entry): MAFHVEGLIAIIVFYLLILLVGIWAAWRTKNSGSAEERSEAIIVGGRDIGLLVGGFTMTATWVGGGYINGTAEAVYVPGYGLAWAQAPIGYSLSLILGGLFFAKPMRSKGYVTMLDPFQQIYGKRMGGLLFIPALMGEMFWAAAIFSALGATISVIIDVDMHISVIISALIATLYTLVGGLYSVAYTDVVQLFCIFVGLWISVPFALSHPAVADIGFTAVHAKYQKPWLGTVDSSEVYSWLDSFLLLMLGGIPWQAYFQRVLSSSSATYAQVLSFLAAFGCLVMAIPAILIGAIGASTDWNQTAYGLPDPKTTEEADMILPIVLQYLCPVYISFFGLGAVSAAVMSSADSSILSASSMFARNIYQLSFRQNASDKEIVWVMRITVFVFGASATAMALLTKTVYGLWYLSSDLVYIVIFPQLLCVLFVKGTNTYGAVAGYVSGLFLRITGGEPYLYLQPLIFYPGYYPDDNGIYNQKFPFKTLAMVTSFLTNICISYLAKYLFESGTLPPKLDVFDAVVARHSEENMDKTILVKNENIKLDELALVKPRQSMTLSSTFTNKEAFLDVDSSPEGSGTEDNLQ
As to the kind of experiment: CHT activators, dose response, cell-based, 10-point CRC, membrane potential dye (AID 602376). It is filed as functional.

Experiment [2] has as its system INS1. In words: inhibitors of cytokine-induced nitrite release, dose response, cell-based, Griess absorbance, INS-1E, dry powder, set 2 (AID 488868). In kind it is functional. As to conditions: Rattus norvegicus. In general terms: The Griess reaction detects nitrite, a stable product of nitric oxide.
Experiment [3] can be described thus: control 3'UTR Renilla luciferase suppression, dose response, counter-screen for Shn3 inhibitor project, cell-based, Clone20-Shn3RL, cherry-picked (AID 624133). In kind it is functional. (Counterscreens check selectivity or assay interference.)
Experiment [4] has as its target Heat shock protein HSP 90-alpha (Homo sapiens, UniProt P07900). In kind it is functional, organism-based.
A short description of experiment [5]: insulin promoter down-regulators in MIN6 cells, imaging, high-content screening, mouse beta cells (AID 1628). In kind it is functional.
Experiment [6] in a line: NIH-3T3 fibroblast cytotoxicity, dose response, cytotoxicity control, cell-based, fluorescence, Alamar Blue, secondary assay (AID 2327).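 Also: NIH-3T3 mouse fibroblasts cultured with fluconazole at 8 µg/mL.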 In kind it is functional.
For experiment [7], the system named is Jurkat. As to the kind of experiment: SAR Analysis of small molecule inhibitors of T-cell specific antigen receptor-induced NF-kB activation in a Jurkat cell line using a luminescence assay - Set 2. [Related pubchem assays (depositor defined):AID435003, AID435012, AID465]. It is filed as functional, cell-based. As to conditions: Homo sapiens.
The test system of experiment [8] is HEK293. In words: SAR Analysis of small molecule inhibitors of T-cell specific antigen receptor-induced NF-kB activation in a HEK-293T cell line using a luminescence assay - Set 2. [Related pubchem assays (depositor defined):AID435003, AID435012, AID489026]. As to conditions: Homo sapiens. In kind it is functional, cell-based.
A short description of experiment [9]: cytotoxicity in MIN6 insulinoma cells, dose response, cytotoxicity control, cell-based, mouse insulinoma (AID 2122).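 Also: confirmatory high-throughput counterscreen run to flag cytotoxic compounds; mouse MIN-6 beta cells carrying an insulin promoter eGFP reporter.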 In kind it is functional.
In experiment [10] the test system is Jurkat. As to the kind of experiment: SAR Analysis of small molecule inhibitors of T-cell specific antigen receptor-induced NF-kB activation in a Jurkat cell line using a luminescence assay. [Related pubchem assays (depositor defined):AID435003, AID435012, AID465]. In kind it is functional, cell-based. Conditions: Homo sapiens.
For experiment [11], the system named is INS1. As to the kind of experiment: beta cell apoptosis inhibitors, cytokine rescue, dose response, luminescence, retest (AID 449756).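 Also: cell death triggered by IL-1 beta plus TNF-alpha plus IFN-gamma mixture; protective hits raise ATP signal compared with cytokine alone wells.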 In kind it is functional, cell-based. As to conditions: Rattus norvegicus.
Experiment [12] is described as follows: cytotoxicity toward NIH3T3 fibroblasts, dose response, counter-screen, cell-based, ATP luminescence, mouse fibroblasts (AID 2010).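 Also: cells exposed to compound for about 90 hours before reading.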 In kind it is functional.
The nature of experiment [13]: Shn3 3'UTR reporter inhibitors, dose response, cell-based, Clone20 osteoblasts, firefly luciferase, cherry-picked (AID 624132).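 Also: firefly luciferase luminescence from reporter carrying the Shn3 3'UTR in osteoblasts.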 It is filed as functional.
The nature of experiment [14]: inhibitors of intracellular T. cruzi replication, confirmation, NIH3T3 host cells, beta-gal luminescence (AID 2044).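 Also: intracellular parasites grown in NIH/3T3 mouse fibroblasts as host cells; luminescent beta-galactosidase reporter signal from transgenic T. cruzi replicating inside host cells; inhibitors lower the luminescence signal.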 In kind it is functional, cell-based.
The nature of experiment [15]: Counterscreen for AddAB inhibitors: absorbance-based bacterial cell-based high throughput dose response assay for inhibitors of bacterial viability. [Related pubchem assays (depositor defined):AID435030, AID449728, AID449731, AID488942, AID488955, AID488956]. In kind it is functional.
The target of experiment [16] is Serine/threonine-protein phosphatase (Candida dubliniensis (strain CD36 / CBS 7987 / NCPF 3949 / NRRLY-17841) (Yeast), UniProt B9W6M3). In words: calcineurin pathway inhibitors in yeast reporter, dose response, S. cerevisiae, CDRE-lacZ, luminescence, secondary (AID 2388).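 Also: yeast reporter cells carrying a calcineurin-responsive lacZ construct stimulated with calcium chloride; luminescent beta-galactosidase reporter signal in whole cells rather than isolated phosphatase activity; potency for inhibition where a drop in reporter signal means calcineurin blockade.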 It is filed as functional, cell-based.
Chain of Serine/threonine-protein phosphatase (B9W6M3 whole entry): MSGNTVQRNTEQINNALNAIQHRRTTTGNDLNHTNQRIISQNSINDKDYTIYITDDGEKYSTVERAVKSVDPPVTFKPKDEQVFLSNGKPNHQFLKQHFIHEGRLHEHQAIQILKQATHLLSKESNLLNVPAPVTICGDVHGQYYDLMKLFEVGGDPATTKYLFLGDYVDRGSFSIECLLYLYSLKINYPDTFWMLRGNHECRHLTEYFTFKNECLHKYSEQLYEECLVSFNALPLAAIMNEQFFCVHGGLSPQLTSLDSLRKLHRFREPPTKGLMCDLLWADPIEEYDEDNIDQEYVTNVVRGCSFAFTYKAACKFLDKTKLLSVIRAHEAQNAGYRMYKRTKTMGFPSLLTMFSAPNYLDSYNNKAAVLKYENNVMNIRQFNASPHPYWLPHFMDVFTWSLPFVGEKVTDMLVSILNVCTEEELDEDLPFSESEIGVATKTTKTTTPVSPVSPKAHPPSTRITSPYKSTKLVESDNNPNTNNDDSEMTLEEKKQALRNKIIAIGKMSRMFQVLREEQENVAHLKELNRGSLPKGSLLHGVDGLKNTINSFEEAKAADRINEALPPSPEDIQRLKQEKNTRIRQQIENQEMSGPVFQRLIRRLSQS
The next experiment has as its target Exodeoxyribonuclease V (Escherichia coli (strain K12), UniProt P04993+P07648+P08394). As to the kind of experiment: E. coli RecBCD inhibitors, dose response, counter-screen for AddAB inhibitor project, absorbance, V66 E. coli, mutant T4 phage (AID 492957). In kind it is functional, cell-based, Escherichia coli str. K-12 substr. MG1655.
Experiment [17] can be described thus: cells. It is filed as functional, cell-based.
Experiment [18] in a line: cytotoxicity in HEK-293T cells, dose response, cytotoxicity control for TCR NF-kB inhibitor project, luminescence, T-cell screen hits (AID 489026).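 Also: cells exposed to compound about 14 hours before the viability readout.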 It is filed as functional, cell-based.
Experiment [19] is described as follows: C. albicans growth with fluconazole, confirmation, fluorescence, retest (AID 2467). It is filed as functional, cell-based.
Experiment [20] can be described thus: HepG2 cell cytotoxicity, dose response, cytotoxicity control for Shn3 inhibitor project, CellTiter-Glo, cherry-picked (AID 624134). In kind it is functional, cell-based.
Experiment [21] concerns HEK293. As to the kind of experiment: SAR Analysis of small molecule inhibitors of T-cell specific antigen receptor-induced NF-kB activation in a HEK-293T cell line using a luminescence assay. [Related pubchem assays (depositor defined):AID435003, AID435012, AID489026]. As to conditions: Homo sapiens. In kind it is functional, cell-based.
For experiment [22], the target named is ATP-dependent molecular chaperone HSP82 (Candida albicans (strain WO-1) (Yeast), UniProt C4YTQ8). In words: loss of DOC-induced GRE-beta-galactosidase reporter signal, dose response, Hsp90 inhibitor project, S. cerevisiae, luminescence (AID 2400).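 Also: beta-galactosidase luminescence from glucocorticoid response element reporter as proxy for Hsp90 function; inhibitor potency where signal loss means Hsp90 inhibition.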 It is filed as functional, cell-based.
Chain of ATP-dependent molecular chaperone HSP82 (C4YTQ8 whole entry): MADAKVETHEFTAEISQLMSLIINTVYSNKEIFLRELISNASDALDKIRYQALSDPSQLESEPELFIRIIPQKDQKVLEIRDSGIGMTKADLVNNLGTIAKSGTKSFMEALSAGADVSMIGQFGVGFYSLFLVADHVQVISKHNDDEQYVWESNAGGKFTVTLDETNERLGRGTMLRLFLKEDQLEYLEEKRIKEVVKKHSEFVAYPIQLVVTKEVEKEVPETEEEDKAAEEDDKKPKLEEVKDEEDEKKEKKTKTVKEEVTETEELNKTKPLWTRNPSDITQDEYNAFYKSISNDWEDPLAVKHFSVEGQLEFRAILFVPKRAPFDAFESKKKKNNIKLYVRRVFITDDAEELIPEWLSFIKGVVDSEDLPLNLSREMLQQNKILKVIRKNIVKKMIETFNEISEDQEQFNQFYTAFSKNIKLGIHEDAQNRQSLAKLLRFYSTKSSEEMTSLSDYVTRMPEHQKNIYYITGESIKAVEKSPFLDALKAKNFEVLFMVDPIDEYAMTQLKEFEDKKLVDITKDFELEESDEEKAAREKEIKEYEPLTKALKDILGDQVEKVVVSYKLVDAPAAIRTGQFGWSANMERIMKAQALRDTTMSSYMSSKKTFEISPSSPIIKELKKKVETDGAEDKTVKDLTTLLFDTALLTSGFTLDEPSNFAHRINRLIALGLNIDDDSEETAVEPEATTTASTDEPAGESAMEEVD
Experiment [23] is described as follows: cells. It is filed as functional, cell-based. The source holds these as a separate data set.
A further experiment deals with CHO. As to the kind of experiment: cytotoxicity in TLR9-MyD88 CHO cells, dose response, cytotoxicity control for TLR9-MyD88 binding inhibitor project, cell-based, luminescence (AID 588339).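 Also: CHO cells stably coexpressing TLR9 and MyD88 fusions from primary screen; compound exposure lasted 48 hours before viability readout.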 It is filed as functional, hamster. As to conditions: Cricetulus griseus.
Another experiment deals with T2, Protein RecA (Mycobacterium tuberculosis, UniProt P9WHJ3).
T2 sequence (P9WHJ3 whole entry): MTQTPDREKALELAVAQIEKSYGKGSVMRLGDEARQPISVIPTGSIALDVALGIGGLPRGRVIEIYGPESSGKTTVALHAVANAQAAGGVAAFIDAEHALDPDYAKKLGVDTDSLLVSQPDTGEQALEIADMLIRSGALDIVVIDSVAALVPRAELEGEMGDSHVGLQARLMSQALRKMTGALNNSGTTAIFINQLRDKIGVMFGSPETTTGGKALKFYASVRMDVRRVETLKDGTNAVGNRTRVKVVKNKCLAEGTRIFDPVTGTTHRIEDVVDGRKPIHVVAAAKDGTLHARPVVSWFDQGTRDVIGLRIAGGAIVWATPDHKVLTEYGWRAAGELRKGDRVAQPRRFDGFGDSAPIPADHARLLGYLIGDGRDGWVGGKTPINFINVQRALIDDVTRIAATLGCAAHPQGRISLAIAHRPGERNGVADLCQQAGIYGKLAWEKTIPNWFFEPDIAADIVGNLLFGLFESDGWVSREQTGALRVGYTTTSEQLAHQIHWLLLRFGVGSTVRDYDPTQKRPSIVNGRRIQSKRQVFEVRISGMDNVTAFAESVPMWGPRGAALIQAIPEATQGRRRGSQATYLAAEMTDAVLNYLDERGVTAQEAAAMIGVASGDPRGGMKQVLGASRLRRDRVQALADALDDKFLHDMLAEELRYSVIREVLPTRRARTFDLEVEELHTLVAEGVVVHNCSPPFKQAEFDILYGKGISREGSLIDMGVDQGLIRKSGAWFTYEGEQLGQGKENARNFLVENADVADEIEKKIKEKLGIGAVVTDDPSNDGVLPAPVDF
In words: Fluorescence Cell-Free Homogeneous Dose Retest to Identify Inhibitors of RecA-Intein Splicing Activity. [Related pubchem assays (depositor defined):AID2097, AID2223, AID489010, AID492950]. In kind it is functional.

Experiment [24] addresses T1, High affinity choline transporter 1. In words: CHT inhibitors, dose response, cell-based, 5-point CRC, membrane potential dye (AID 504840). It is filed as functional.
A further experiment concerns the target Beta Lactamase (Pseudomonas aeruginosa, UniProt Q932Y6). As to the kind of experiment: beta-lactamase reporter inhibitor potency, dose response, artefact control for TLR9-MyD88 binding inhibitor project, BLA reporter cells, FRET fluorescence (AID 588341).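 Also: cell based assay in CHO-K1 cells stably expressing beta-lactamase.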 It is filed as cell-based.
Experiment [25] concerns the target T3, Replicative DNA helicase DnaB (Mycobacterium tuberculosis, UniProt P9WMR3).
T3 sequence (P9WMR3 whole entry): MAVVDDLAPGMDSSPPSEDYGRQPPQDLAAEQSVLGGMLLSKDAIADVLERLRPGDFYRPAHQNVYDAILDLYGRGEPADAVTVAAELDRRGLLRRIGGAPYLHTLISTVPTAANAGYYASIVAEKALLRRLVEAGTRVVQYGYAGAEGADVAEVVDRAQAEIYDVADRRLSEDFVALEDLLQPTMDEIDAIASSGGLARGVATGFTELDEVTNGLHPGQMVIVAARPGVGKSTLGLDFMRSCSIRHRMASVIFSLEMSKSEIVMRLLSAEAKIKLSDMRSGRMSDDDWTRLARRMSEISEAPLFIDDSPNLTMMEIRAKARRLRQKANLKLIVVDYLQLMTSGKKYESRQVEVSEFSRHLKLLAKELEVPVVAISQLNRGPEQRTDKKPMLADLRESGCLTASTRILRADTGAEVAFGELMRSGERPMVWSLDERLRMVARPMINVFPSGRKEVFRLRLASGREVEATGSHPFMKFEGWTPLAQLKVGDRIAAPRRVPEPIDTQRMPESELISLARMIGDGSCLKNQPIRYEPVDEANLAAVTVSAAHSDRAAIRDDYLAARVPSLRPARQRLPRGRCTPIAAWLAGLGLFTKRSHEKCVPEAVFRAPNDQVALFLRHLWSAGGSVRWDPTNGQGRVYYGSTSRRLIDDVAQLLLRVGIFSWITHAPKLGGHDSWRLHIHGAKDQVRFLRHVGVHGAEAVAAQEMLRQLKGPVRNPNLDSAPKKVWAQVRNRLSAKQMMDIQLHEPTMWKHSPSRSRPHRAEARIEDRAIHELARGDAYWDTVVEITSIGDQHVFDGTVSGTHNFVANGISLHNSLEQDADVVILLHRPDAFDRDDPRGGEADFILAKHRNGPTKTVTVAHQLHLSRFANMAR
As to the kind of experiment: DnaB intein splicing inhibitors, dose response, biochemical, cell-free fluorescence (AID 449749). In kind it is functional.

Active and inactive are the calls of the source.

Chain of Exodeoxyribonuclease V (P04993 whole entry): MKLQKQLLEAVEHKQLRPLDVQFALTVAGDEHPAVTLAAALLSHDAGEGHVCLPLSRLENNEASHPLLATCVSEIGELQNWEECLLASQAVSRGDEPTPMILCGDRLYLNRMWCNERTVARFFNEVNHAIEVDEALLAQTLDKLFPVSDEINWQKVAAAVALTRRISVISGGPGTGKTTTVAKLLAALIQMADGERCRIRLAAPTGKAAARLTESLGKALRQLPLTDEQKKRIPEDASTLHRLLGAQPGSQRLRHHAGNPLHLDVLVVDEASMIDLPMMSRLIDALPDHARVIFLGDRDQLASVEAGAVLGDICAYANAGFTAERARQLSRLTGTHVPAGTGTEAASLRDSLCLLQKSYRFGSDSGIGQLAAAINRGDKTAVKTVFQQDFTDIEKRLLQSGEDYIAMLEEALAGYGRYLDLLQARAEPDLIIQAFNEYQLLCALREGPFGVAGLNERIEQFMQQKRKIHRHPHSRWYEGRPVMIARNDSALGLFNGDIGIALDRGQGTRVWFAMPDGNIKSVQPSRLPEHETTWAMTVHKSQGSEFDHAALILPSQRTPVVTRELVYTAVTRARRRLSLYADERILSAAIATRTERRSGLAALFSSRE
Chain of Exodeoxyribonuclease V (P07648 whole entry): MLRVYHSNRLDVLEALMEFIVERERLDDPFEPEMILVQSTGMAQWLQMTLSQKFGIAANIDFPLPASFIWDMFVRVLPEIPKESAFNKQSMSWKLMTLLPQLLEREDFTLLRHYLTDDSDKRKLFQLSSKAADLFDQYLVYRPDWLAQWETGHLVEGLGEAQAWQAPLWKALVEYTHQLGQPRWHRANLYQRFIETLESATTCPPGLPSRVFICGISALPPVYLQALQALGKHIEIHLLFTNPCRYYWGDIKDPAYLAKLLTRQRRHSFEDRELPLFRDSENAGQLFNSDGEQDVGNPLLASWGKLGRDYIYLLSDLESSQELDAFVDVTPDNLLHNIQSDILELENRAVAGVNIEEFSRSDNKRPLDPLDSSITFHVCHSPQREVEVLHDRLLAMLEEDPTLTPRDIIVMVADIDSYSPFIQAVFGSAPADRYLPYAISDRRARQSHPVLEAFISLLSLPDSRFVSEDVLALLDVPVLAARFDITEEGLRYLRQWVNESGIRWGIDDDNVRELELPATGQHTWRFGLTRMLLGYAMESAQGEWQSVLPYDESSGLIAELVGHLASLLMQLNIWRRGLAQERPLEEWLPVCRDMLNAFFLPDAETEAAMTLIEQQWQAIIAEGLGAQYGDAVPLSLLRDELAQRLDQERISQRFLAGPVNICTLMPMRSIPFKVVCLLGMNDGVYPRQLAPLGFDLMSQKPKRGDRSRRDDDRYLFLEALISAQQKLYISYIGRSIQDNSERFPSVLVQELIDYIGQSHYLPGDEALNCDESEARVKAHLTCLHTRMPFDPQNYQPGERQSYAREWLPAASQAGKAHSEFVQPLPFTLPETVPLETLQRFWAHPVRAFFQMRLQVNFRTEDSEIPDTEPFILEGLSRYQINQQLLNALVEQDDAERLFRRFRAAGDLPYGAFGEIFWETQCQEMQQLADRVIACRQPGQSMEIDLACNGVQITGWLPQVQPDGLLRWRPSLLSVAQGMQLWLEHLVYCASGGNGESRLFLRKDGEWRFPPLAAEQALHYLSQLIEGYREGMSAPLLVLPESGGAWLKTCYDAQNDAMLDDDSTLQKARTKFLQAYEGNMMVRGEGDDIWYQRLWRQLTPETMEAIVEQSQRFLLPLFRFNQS
Chain of Exodeoxyribonuclease V (P08394 whole entry): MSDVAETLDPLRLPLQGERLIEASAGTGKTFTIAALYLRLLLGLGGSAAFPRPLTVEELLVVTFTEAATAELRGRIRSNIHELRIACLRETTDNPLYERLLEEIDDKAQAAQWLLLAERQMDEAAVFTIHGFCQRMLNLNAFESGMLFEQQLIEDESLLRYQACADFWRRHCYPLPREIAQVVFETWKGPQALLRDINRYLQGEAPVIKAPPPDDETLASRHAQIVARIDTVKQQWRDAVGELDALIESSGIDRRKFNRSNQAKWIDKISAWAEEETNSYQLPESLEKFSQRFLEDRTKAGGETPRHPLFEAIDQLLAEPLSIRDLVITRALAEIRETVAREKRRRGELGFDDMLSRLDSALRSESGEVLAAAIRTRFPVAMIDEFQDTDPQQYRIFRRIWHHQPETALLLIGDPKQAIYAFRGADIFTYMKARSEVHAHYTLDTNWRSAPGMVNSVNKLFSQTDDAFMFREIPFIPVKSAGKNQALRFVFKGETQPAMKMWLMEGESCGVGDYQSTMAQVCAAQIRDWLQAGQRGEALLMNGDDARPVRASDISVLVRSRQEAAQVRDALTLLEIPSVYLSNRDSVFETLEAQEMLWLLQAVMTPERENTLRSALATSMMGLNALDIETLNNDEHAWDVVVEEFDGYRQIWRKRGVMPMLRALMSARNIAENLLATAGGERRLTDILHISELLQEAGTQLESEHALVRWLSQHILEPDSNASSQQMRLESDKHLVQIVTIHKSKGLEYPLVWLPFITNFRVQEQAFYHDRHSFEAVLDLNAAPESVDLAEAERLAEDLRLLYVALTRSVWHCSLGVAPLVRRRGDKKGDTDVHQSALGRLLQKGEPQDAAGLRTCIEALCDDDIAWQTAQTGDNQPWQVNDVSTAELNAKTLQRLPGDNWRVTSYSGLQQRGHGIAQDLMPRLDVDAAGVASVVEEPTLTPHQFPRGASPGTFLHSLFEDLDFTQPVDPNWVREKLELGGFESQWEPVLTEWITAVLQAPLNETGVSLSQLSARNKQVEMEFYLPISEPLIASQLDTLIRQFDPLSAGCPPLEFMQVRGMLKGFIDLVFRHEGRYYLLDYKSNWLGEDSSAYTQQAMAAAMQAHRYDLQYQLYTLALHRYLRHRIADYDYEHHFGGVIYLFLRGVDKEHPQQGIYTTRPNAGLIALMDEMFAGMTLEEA
Chain of Beta Lactamase (Q932Y6 whole entry): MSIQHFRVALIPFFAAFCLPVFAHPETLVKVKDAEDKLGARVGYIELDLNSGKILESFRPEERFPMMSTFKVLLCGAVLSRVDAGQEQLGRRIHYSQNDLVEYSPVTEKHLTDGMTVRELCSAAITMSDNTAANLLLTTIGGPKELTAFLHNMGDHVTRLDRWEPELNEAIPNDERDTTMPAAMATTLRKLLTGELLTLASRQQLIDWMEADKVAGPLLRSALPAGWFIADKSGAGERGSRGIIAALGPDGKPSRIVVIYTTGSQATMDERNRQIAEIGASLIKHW

In the case of `COc1ccc(N2C(=O)/C(=C\c3ccco3)N=C2SCC(=O)N(C(C)C)C(C)C)cc1Cl`, in experiment [1], the EC50 is 17.6 µM (active).
As to `C[C@@H]1CN([C@@H](C)CO)C(=O)c2cccc(NC(=O)Nc3cccc4ccccc34)c2O[C@H]1CN(C)S(=O)(=O)c1ccccc1`, the AC50 in the experiment on INS1 [2] was 36.1 µM (active).
With `CCCC(=O)NC(c1ccc(OC)cc1)c1ccc2cccnc2c1O` (configuration not stated), the AC50 in experiment [3] is 1.08 µM (active); in [4] it was 4.08 µM (active); in the experiment with INS1 [11], 0.696 µM (active); in experiment [13], 1.18 µM (active); in [20] it was 2.33 µM (active). Moreover, the concentration for half-maximal inhibition (IC50) in experiment [5] was 1.23 µM (active); in the experiment with Jurkat [7], 3.11 µM (active); in the experiment with HEK293 [8], 3.64 µM (active); in [9] it was 1.52 µM (active); in the experiment with Jurkat [10], 2.96 µM (active); in experiment [15], > 119 µM (inactive). The results for the IC50 (at Exodeoxyribonuclease V; in [18]; in the experiment with HEK293 [21]) were > 119 µM (inactive), > 80 µM (inactive) and 4.92 µM (active), respectively. Moreover, the EC50 in experiment [6] was 41.4 µM (active); in experiment [12], 1.4 µM (active); in [14] it was 0.527 µM (active); in [16], > 180 µM (inactive); in “cells [17]”, 6.31 µM (active); in experiment [19] it was 0.349 µM (active). The EC50 is > 160 µM (inactive) in experiment [22] and > 350 µM (not active) in “cells [23]”.
As for `COc1cccc(NC(=O)c2nc(S(C)(=O)=O)ncc2Cl)c1`, the half-maximal inhibitory concentration (IC50) in the experiment on CHO was 5.41 µM (active); in [24], 14.5 µM (active); at Beta Lactamase it was 8.9 µM (active). Moreover, the concentration at half-maximal activity (AC50) was 11.5 µM (active) in experiment [3], 0.834 µM (active) in [13], 22 µM (active) in experiment [20] and 0.111 µM (inconclusive) in [25]. The EC50 on Protein RecA is 6.17 µM (active).
